Measurements from publication PMC10285260, “Processive kinetics in the three-step lanosterol 14α-demethylation reaction catalyzed by human cytochrome P450 51A1” (The Journal of Biological Chemistry, 2023).
Values joined by “and” are separate entries in the source; they are usually repeats but may differ in a detail not shown here. Identical values can stand only once.

Legend:
human P450 51A1 [1] = target: T1, human P450 51A1 (Homo sapiens, UniProt Q16850); assay: Steady-state LC-UV assay of sterol oxidation to dihydro FF-MAS by reconstituted P450 51A1
T1 sequence (Q16850 1-509): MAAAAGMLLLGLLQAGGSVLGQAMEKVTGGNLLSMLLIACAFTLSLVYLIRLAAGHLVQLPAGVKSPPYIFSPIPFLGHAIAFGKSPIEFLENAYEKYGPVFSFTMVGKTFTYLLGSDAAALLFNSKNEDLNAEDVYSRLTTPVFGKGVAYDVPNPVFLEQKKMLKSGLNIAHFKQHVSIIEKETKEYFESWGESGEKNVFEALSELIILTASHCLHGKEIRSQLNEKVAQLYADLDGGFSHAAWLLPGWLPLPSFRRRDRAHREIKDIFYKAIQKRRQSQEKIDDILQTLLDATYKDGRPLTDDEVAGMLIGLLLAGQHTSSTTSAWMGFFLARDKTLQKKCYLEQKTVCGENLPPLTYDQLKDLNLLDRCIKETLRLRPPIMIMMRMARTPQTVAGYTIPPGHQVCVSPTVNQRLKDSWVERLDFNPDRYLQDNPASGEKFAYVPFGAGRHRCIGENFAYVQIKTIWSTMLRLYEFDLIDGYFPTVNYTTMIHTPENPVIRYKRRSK
Procedure: Steady-state incubations (500 μl) were generally done at 37 °C with 0.025 μM P450 51A1, 0.10 μM NADPH-P450 reductase, 100 μM L-α-dilauroyl-sn-glycero-3-phosphocholine, 50 mM potassium phosphate buffer (pH 7.4), 10% (v/v) glycerol, and an indicated concentration of each sterol (in 45% (w/v) HPCD). […] The sterols (stored at 4 °C) were prepared as described above and were heated to 37 °C and sonicated prior to use. Sterol working stocks were diluted in HPCD to ensure a constant concentration of cyclodextrin in each reaction. […] Accordingly, all reactions were done with this concentration of glycerol.
Reactions were preincubated (5 min, 37 °C) prior to initiation with an NADPH-regenerating system (0.5 mM NADP^+, 10 mM glucose 6-phosphate, and 2 μg ml^−1 glucose 6-phosphate dehydrogenase) ([60]) and were stopped after 5 min with the addition of CH2Cl2 (5 ml). (The NADPH-generating system, in addition to lower cost than NADPH, drives the reaction to avoid inhibition of the reductase by accumulated NADP^+). For the 14α-aldehyde, the times of preincubation and reaction were reduced (to 2 min and 1 min, respectively). The quenched mixture was centrifuged (2000g, 5 min), and 4 ml of the bottom (organic) layer was transferred to vials and brought to dryness under a stream of N2 gas. The dried residue was resuspended in CH3OH (100 μl) and was analyzed by UPLC using a 2.1 mm × 100 mm (1.7 μm) octadecylsilane (C18) column (held at 25 °C) and a Waters Acquity UPLC system. Samples (4 °C) were injected (10 μl) at a flow rate of 0.20 ml min^−1 using an isocratic mobile phase of CH3CN (only). The product (FF-MAS) was detected using a Waters Acquity photodiode array detector set at 250 nm (Fig. 4B). Data were processed using the MassLynx software (http://www.waters.com/waters/en_US/MassLynx-Mass-Spectrometry-Software-/nav.htm?cid=513164&locale=en_US), and the amount of product formed was calculated by comparison to a twelve-point dihydro FF-MAS standard curve. Determination of kcat and Km for each reaction was carried out by fitting the data to a Michaelis–Menten hyperbola, which was done using GraphPad Prism.
Incubations were run in triplicate, and the mean values (±SD) were calculated and plotted. The linear regression fits include the Prism error estimates for internal fitting (SE).

human P450 51A1 [2] = assay: Kinetic modeling (KinTek Explorer) of the single-turnover time course
Description: The initial koff rate constants used in fitting were the koff rates measured in the stopped-flow trap experiments (Fig. 9). All three oxidation reactions are irreversible, and thus k-2, k-4, and k-6 were set to zero.
Data were imported into KinTek Explorer software (v. 11.01, KinTek, https://kintekcorp.com/software) ([63], [64]) as txt files and processed using an Apple computer (operating system 11.6.2).

human P450 51A1 [3] = target: T1, human P450 51A1; assay: Single-turnover rapid-quench kinetics of [3-3H]-dihydrolanosterol oxidation (radio-HPLC); format: biochemical; parameters: made in house; host or cells: Escherichia coli
Procedure: All products were separated and quantified by radio-HPLC (Fig. S24).
Samples (held at 4 °C) were injected (45 μl) onto a Nova-Pak 3.9 mm × 150 mm (4 μm) octadecylsilane (C18) HPLC column (held at 23 °C). The products were separated at a flow rate of 1.0 ml min^−1 using an isocratic mobile phase composed of CH3CN (only) as was done for the LC-UV assays (above). The eluate from the column was mixed (1:2, v-v) with FlowLogic U scintillation cocktail, and radioactivity (^3H) was detected on a β-RAM Model 5 system (IN/US, LabLogic) (Fig. S24). Product formation was assessed as the relative contribution of each peak (in CPM) to the summed peak area of substrate and product(s).
The single-turnover experiments were performed using a KinTek rapid quench-flow apparatus (KinTek). This machine functions by forcing equal volumes (∼19 μl) of two separate solutions into a central mixing chamber, where the components are allowed to incubate for a predetermined period of time before an excess volume of quench solution (∼160 μl) stops the reaction and expels the mixture from the apparatus. […] After the predetermined incubation period, the reaction (37 °C) was quenched with HCl (1 M), and the mixture (∼200 μl) was collected into vials. The products of five identical reactions (time points) were combined and were extracted into CH2Cl2 (5 ml). An aliquot (4 ml) of the lower (organic) layer was removed into a fresh vial, and the extraction was repeated to maximize sample recovery. The pooled organic fraction (∼8 ml) was brought to dryness under a stream of N2 gas, and the residue was redissolved in 60 μl of CH3OH and transferred to LC vials for analysis.

## CC(C)CCCC(C)[C@H]1CC[C@@]2(C)C3=C(CC[C@]12C)[C@@]1(C)CC[C@H](O)C(C)(C)C1CC3 (stereo partly drawn) [dihydrolanosterol, 24,25-dihydrolanosterol]
Human P450 51A1 [1]; oxidation to dihydro FF-MAS (epi-dihydro FF-MAS from epi substrate), 37 °C
  kcat: 0.50 ± 0.03 s⁻¹ and 0.50 s⁻¹
Human P450 51A1 [1]; substrate 0.25 µM
  Rate of FF-MAS formation (replicates): 0.9 min-1 and 1.0 min-1 (2×)
Human P450 51A1 [1]; substrate 0.50 µM
  Rate of FF-MAS formation (replicates): 2.4 min-1 (2×) and 2.1 min-1
Human P450 51A1 [1]; substrate 0.75 µM
  Rate of FF-MAS formation (replicates): 3.4 min⁻¹ and 3.0 min⁻¹ and 3.7 min⁻¹
Human P450 51A1 [1]; substrate 1.00 µM
  Rate of FF-MAS formation (replicates): 4.1 min⁻¹ and 4.3 min⁻¹ and 3.4 min⁻¹
Human P450 51A1 [1]; substrate 1.50 µM
  Rate of FF-MAS formation (replicates): 4.8 min⁻¹ and 6.3 min⁻¹ and 5.8 min⁻¹
Human P450 51A1 [1]; substrate 2.50 µM
  Rate of FF-MAS formation (replicates): 12.8 min⁻¹ and 12.1 min⁻¹ and 9.4 min⁻¹
Human P450 51A1 [1]; substrate 5.00 µM
  Rate of FF-MAS formation (replicates): 16.4 min-1 and 15.6 min-1 (2×)
Human P450 51A1 [1]; substrate 7.50 µM
  Rate of FF-MAS formation (replicates): 21.8 min⁻¹ and 17.6 min⁻¹ and 18.3 min⁻¹
Human P450 51A1 [1]; substrate 10.00 µM
  Rate of FF-MAS formation (replicates): 20.3 min⁻¹ and 21.5 min⁻¹ and 22.5 min⁻¹
Human P450 51A1 [1]; substrate 15.00 µM
  Rate of FF-MAS formation (replicates): 19.1 min⁻¹ and 23.3 min⁻¹ and 21.3 min⁻¹
Human P450 51A1 [2]; all kon set at this value
  k^+ of sterol binding to P450 51A1 (kon) used for fitting: 2e+06 M⁻¹ s⁻¹
Human P450 51A1 [2]; irreversible, set to zero
  k^- of oxidation step of the P450-sterol complex: 0
Human P450 51A1 [2]; optimized model
  k^- of sterol binding to P450 51A1 (koff) used for fitting: 0.075 s⁻¹
Human P450 51A1 [2]; optimized model, label = sterol oxidized in the step
  k^+ of oxidation step of the P450-sterol complex: 7.5 s⁻¹
Human P450 51A1 [3]; first step, 7 s^−1/0.23 μM
  kobs/Kd: 3e+07 M⁻¹ s⁻¹
Human P450 51A1 [3]; single turnover
  fraction of initial material persisting until > 4 s: ~20%
  time in which the reaction was completed: 7 s
  time of 50% decrease of substrate concentration: 0.10 s
Human P450 51A1 [3]; single turnover, 37 °C
  first-order exponential decay rate of substrate concentration: 8.7 s⁻¹
Human P450 51A1 [3]; single turnover, even with the lag
  apparent rate of overall oxidation to dihydro FF-MAS, single exponential fit: 0.8 s⁻¹
Human P450 51A1 [3]; time 0.05 s, start 7 µM dihydrolanosterol
  concentration in single-turnover reaction: 4.7572 µM
Human P450 51A1 [3]; time 0.1 s
  concentration in single-turnover reaction: 2.9911 µM
Human P450 51A1 [3]; time 0.15 s
  concentration in single-turnover reaction: 2.8308 µM
Human P450 51A1 [3]; time 0.2 s
  concentration in single-turnover reaction: 1.974 µM
Human P450 51A1 [3]; time 0.3 s
  concentration in single-turnover reaction: 2.0671 µM
Human P450 51A1 [3]; time 0.4 s
  concentration in single-turnover reaction: 1.9166 µM
Human P450 51A1 [3]; time 0.6 s
  concentration in single-turnover reaction: 1.5253 µM
Human P450 51A1 [3]; time 0.8 s
  concentration in single-turnover reaction: 1.5841 µM
Human P450 51A1 [3]; time 1 s
  concentration in single-turnover reaction: 1.0563 µM
Human P450 51A1 [3]; time 1.2 s
  concentration in single-turnover reaction: 1.1711 µM
Human P450 51A1 [3]; time 1.6 s
  concentration in single-turnover reaction: 1.3601 µM
Human P450 51A1 [3]; time 2 s
  concentration in single-turnover reaction: 1.0864 µM
Human P450 51A1 [3]; time 3 s
  concentration in single-turnover reaction: 1.1137 µM
Human P450 51A1 [3]; time 4 s
  concentration in single-turnover reaction: 0.3647 µM
Human P450 51A1 [3]; time 7 s
  concentration in single-turnover reaction: 0 µM
